According to patent US20230389548A1, “MIXTURES OF PYRIMIDINES AS HERBICIDAL COMPOSITIONS” (SYNGENTA CROP PROTECTION AG, priority 2020, published 2023):

Experiments:
Test in all cases: Post-emergence glasshouse spray test, visual percentage phytotoxicity after 13 days
Type in all cases: in vivo
[1] = system: Amaranthus retroflexus (AMARE); conditions: B1
Method: (§1) Seeds of Setaria faberi (SETFA), Echinochloa crus-galli (ECHCG), Digitaria sanguinalis (DIGSA), Lolium perenne (LOLPE), Alopecurus myosuroides (ALOMY), Chenopodium album (CHEAL), Ipomoea hederacea (IPOHE), Stellaria media (STEME), Abutilon threophrasti (ABUTH), Amaranthus retroflexus (AMARE) were sown in standard sterilised soil in pots. After cultivation for 8 days under controlled conditions in a glasshouse (at 24/19° C., day/night; 16 hours light; no humidity control), the plants were sprayed at 500 l/Ha with an aqueous spray solution derived from the formulation of the technical active ingredients in a small amount of acetone and a solvent and emulsifier mixture referred to as IF50 (11.12% Emulsogen EL360™+44.44% N-methylpyrrolidone+44.44% Dowanol DPM glycol ether), to create a 50 g/l solution which was then diluted using 0.2% Genapol XO80 (CAS Number: 9043-30-5) as diluent to give the desired final dose of test compound.
(§2) Where active ingredients were applied as mixtures, aqueous spray solutions were prepared as above, containing both active ingredients.
(§3) The test plants were then grown under controlled conditions in a glasshouse (at 24/18° C., day/night; 15 hours light; 50% humidity) and watered twice daily. After 13 days, the test was evaluated visually for percentage phytotoxicity to the plants (where 100=total damage to plant; 0=no damage to plant; and NC=not captured) when compared to control untreated plants. Two to four replicates were applied for each treatment in a randomised block test design.
(§4) 22., E=X+Y−(X*Y/100), where
(§5) X=average percent phytotoxicity of herbicide A when applied at a certain rate Y=average percent phytotoxicity using herbicide B when applied at a certain rate E=the expected effect of the mixture of herbicides A and B as calculated from the Colby formula.

Setaria faberi (SETFA) = conditions: for SETFA percentage phytotoxicity: B1; for Observed phytotoxicity SETFA: B2.3.1
Method: as §1, §2, §3, §4, §5

[2] = system: Ipomoea hederacea (IPOHE); conditions: for IPOHE percentage phytotoxicity: B1
Method: as §1, §2, §3, §4, §5

[3] = system: Alopecurus myosuroides (ALOMY); conditions: for ALOMY percentage phytotoxicity: B1
Method: as §1, §2, §3, §4, §5

[4] = system: Digitaria sanguinalis (DIGSA); conditions: for DIGSA percentage phytotoxicity: B1
Method: as §1, §2, §3, §4, §5

Lolium perenne (LOLPE) = conditions: for LOLPE percentage phytotoxicity: B1; for Observed phytotoxicity LOLPE: B2.3.4
Method: as §1, §2, §3, §4, §5

Stellaria media (STEME) = conditions: for STEME percentage phytotoxicity: B1
Method: as §1, §2, §3, §4, §5

[5] = system: Echinochloa crus-galli (ECHCG); conditions: for ECHCG percentage phytotoxicity: B1; for Observed phytotoxicity ECHCG: B2.3.2
Method: as §1, §2, §3, §4, §5

[6] = system: Abutilon threophrasti (ABUTH); conditions: B1
Method: as §1, §2, §3, §4, §5

[7] = system: Chenopodium album (CHEAL); conditions: B1
Method: as §1, §2, §3, §4, §5

CCOC(=O)COc1ncccc1Oc1cc(-n2c(=O)cc(C(F)(F)F)n(C)c2=O)c(F)cc1Cl [B-V]
AMARE percentage phytotoxicity ([1]; 0.31 g/ha post-emergence): 98%
AMARE percentage phytotoxicity ([1]; 0.625 g/ha post-emergence): 98%
AMARE percentage phytotoxicity ([1]; 1.25 g/ha post-emergence): 100%
AMARE percentage phytotoxicity ([1]; 2.5 g/ha post-emergence): 100%
AMARE percentage phytotoxicity ([1]; 5 g/ha post-emergence): 100%
SETFA percentage phytotoxicity (Setaria faberi (SETFA); 0.31 g/ha post-emergence): 30%
SETFA percentage phytotoxicity (Setaria faberi (SETFA); 0.625 g/ha post-emergence): 38%
SETFA percentage phytotoxicity (Setaria faberi (SETFA); 1.25 g/ha post-emergence): 85%
SETFA percentage phytotoxicity (Setaria faberi (SETFA); 2.5 g/ha post-emergence): 99%
SETFA percentage phytotoxicity (Setaria faberi (SETFA); 5 g/ha post-emergence): 100%
Observed phytotoxicity SETFA (Setaria faberi (SETFA); 0.625 g/ha post-emergence): 38%
Observed phytotoxicity SETFA (Setaria faberi (SETFA); 1.25 g/ha post-emergence): 85%
IPOHE percentage phytotoxicity ([2]; 0.31 g/ha post-emergence): 58%
IPOHE percentage phytotoxicity ([2]; 0.625 g/ha post-emergence): 70%
IPOHE percentage phytotoxicity ([2]; 1.25 g/ha post-emergence): 100%
IPOHE percentage phytotoxicity ([2]; 2.5 g/ha post-emergence): 100%
IPOHE percentage phytotoxicity ([2]; 5 g/ha post-emergence): 100%
Observed phytotoxicity IPOHE ([2]; B2.3.6, 0.3125 g/ha post-emergence): 58%
ALOMY percentage phytotoxicity ([3]; 0.31 g/ha post-emergence): 2%
ALOMY percentage phytotoxicity ([3]; 0.625 g/ha post-emergence): 2%
ALOMY percentage phytotoxicity ([3]; 1.25 g/ha post-emergence): 10%
ALOMY percentage phytotoxicity ([3]; 2.5 g/ha post-emergence): 20%
ALOMY percentage phytotoxicity ([3]; 5 g/ha post-emergence): 28%
Observed phytotoxicity ALOMY ([3]; B2.3.5, 1.25 g/ha post-emergence): 10%
DIGSA percentage phytotoxicity ([4]; 0.31 g/ha post-emergence): 13%
DIGSA percentage phytotoxicity ([4]; 0.625 g/ha post-emergence): 43%
DIGSA percentage phytotoxicity ([4]; 1.25 g/ha post-emergence): 88%
DIGSA percentage phytotoxicity ([4]; 2.5 g/ha post-emergence): 99%
DIGSA percentage phytotoxicity ([4]; 5 g/ha post-emergence): 100%
Observed phytotoxicity DIGSA ([4]; B2.3.3, 0.625 g/ha post-emergence): 43%
LOLPE percentage phytotoxicity (Lolium perenne (LOLPE); 0.31 g/ha post-emergence): 2%
LOLPE percentage phytotoxicity (Lolium perenne (LOLPE); 0.625 g/ha post-emergence): 0%
LOLPE percentage phytotoxicity (Lolium perenne (LOLPE); 1.25 g/ha post-emergence): 8%
LOLPE percentage phytotoxicity (Lolium perenne (LOLPE); 2.5 g/ha post-emergence): 15%
LOLPE percentage phytotoxicity (Lolium perenne (LOLPE); 5 g/ha post-emergence): 25%
Observed phytotoxicity LOLPE (Lolium perenne (LOLPE); 1.25 g/ha post-emergence): 8%
Observed phytotoxicity LOLPE (Lolium perenne (LOLPE); 2.5 g/ha post-emergence): 15%
STEME percentage phytotoxicity (Stellaria media (STEME); 0.31 g/ha post-emergence): 25%
STEME percentage phytotoxicity (Stellaria media (STEME); 0.625 g/ha post-emergence): 83%
STEME percentage phytotoxicity (Stellaria media (STEME); 1.25 g/ha post-emergence): 83%
STEME percentage phytotoxicity (Stellaria media (STEME); 2.5 g/ha post-emergence): 100%
STEME percentage phytotoxicity (Stellaria media (STEME); 5 g/ha post-emergence): 100%
Observed phytotoxicity STEME (Stellaria media (STEME); B2.3.7, 0.3125 g/ha post-emergence): 25%
ECHCG percentage phytotoxicity ([5]; 0.31 g/ha post-emergence): 5%
ECHCG percentage phytotoxicity ([5]; 0.625 g/ha post-emergence): 3%
ECHCG percentage phytotoxicity ([5]; 1.25 g/ha post-emergence): 9%
ECHCG percentage phytotoxicity ([5]; 2.5 g/ha post-emergence): 23%
ECHCG percentage phytotoxicity ([5]; 5 g/ha post-emergence): 65%
Observed phytotoxicity ECHCG ([5]; 0.625 g/ha post-emergence): 3%
Observed phytotoxicity ECHCG ([5]; 1.25 g/ha post-emergence): 9%
Observed phytotoxicity ECHCG ([5]; 2.5 g/ha post-emergence): 23%
ABUTH percentage phytotoxicity ([6]; 0.31 g/ha post-emergence): 97%
ABUTH percentage phytotoxicity ([6]; 0.625 g/ha post-emergence): 98%
ABUTH percentage phytotoxicity ([6]; 1.25 g/ha post-emergence): 100%
ABUTH percentage phytotoxicity ([6]; 2.5 g/ha post-emergence): 100%
ABUTH percentage phytotoxicity ([6]; 5 g/ha post-emergence): 100%
CHEAL percentage phytotoxicity ([7]; 0.31 g/ha post-emergence): 85%
CHEAL percentage phytotoxicity ([7]; 0.625 g/ha post-emergence): 96%
CHEAL percentage phytotoxicity ([7]; 1.25 g/ha post-emergence): 93%
CHEAL percentage phytotoxicity ([7]; 2.5 g/ha post-emergence): 100%
CHEAL percentage phytotoxicity ([7]; 5 g/ha post-emergence): 100%
